Measurements published in paper PMC9899896, “Application of a new approach methodology (NAM)-based strategy for genotoxicity assessment of data-poor compounds” (Frontiers in Toxicology, 2023).
Where two headings read alike, the source gives them in different places.

What was measured:
[1] = system: human lymphoblastoid TK6 cells; assay: Viability assessment (propidium iodide fluorescence, flow cytometry); details: TK6 cells, ± S9, quantified at 24 h via propidium iodide
[2] = system: human lymphoblastoid TK6 cells; assay: Integrated NAM-based test strategy (TGx-DDI + MicroFlow + MultiFlow; ToxPi integration of BMCs); details: for Integrated hazard conclusion: from TGx-DDI, MicroFlow and MultiFlow calls; for ToxPi profile of multiplexed endpoint BMCs: six endpoints: TGx-DDI, MN, 4H/24H p53, 4H/24H ɣH2AX
[3] = system: human lymphoblastoid TK6 cells; assay: MultiFlow DNA Damage assay (γH2AX, p53, p-H3, polyploidy); format: cell-based; details: for MultiFlow summary classification (call and MoA): TK6 cells, 4H and 24H sampling; for MultiFlow MoA classification: GEF-based call, in at least one S9 condition; for MultiFlow biomarkers with responses: fold-increase over solvent control
Protocol: Treated cells were gently resuspended and 25 µL/well was mixed thoroughly with the labeling solution. The plate was incubated for 30 min at room temperature shielded from light.
The γH2AX and p53 endpoints were measured based on their median fluorescence intensity (i.e., mean channel fluorescence or MCF) relative to the DMSO solvent control. The p-H3 and polyploidy endpoints were measured based on their frequencies among all events (i.e., all 2n–4n and polyploidy (8n) DNA content). The equations for calculating γH2AX shift, nuclear p53 shift, % polyploidy, and % p-H3 positive events are shown below.
Latex microspheres were used as counting beads to determine nuclear density.
Litron developed Global Evaluation Factors (GEF) to identify a biologically significant increase in select biomarker levels.
A clastogenic or aneugenic call required two successive concentrations that met or exceeded the GEFs in at least 2 of the 4 respective MoA biomarkers. Chemicals that met or exceeded two GEFs in a single non-cytotoxic concentration were designated as “weak” responses. In cases where both clastogen and aneugen biomarkers exceeded the GEF the MoA was considered pan-genotoxic. In cases where less than two biomarkers met the GEFs, the call was non-genotoxic.

[4] = system: human lymphoblastoid TK6 cells; assay: In vitro MicroFlow assay (flow cytometry-based micronucleus test); details: for MicroFlow summary classification (MN induction): TK6 cells, 4H exposure, 24-h sampling; for MicroFlow %MN response (text): positive: >2.5 fold-increase in %MN and p < 0.05 vs vehicle
[5] = system: human lymphoblastoid TK6 cells; assay: TGx-DDI transcriptomic biomarker classification (TempO-Seq S1500+) and BMC modeling; details: for TGx-DDI summary classification: TK6 cells, 4H exposure; for TGx-DDI classification: overall call from 2-DC, PCA, NSC-PA, S9 condition as in Figure 1; for Strength / consistency of TGx-DDI response (text): across concentrations and the three statistical analyses; for TGx-DDI BMC potency ranking (bootstrapped median gene BMC): BMR 1 standard deviation, compounds with concordant positive calls
[6] = system: structural chromosomal aberrations; details: cited from earlier work; for In vitro mammalian chromosomal aberration test result (OECD 473): SCCS
MN = details: cited from earlier work
[7] = +S9 (rat liver S9), 3 h recovery

| Structure (SMILES) | Integrated hazard conclusion [2] | MultiFlow summary classification (call and MoA) ([3]; +S9) | MultiFlow summary classification (call and MoA) ([3]; -S9) | MultiFlow MoA classification [3] | MultiFlow biomarkers with responses [3] | MicroFlow summary classification (MN induction) ([4]; +S9) | MicroFlow summary classification (MN induction) ([4]; -S9) | MicroFlow %MN response (text) [4] | TGx-DDI summary classification [5, 7] | TGx-DDI classification [5] | Strength / consistency of TGx-DDI response (text) [5] | TGx-DDI summary classification ([5]; -S9) | also measured |
| --- | --- | --- | --- | --- | --- | --- | --- | --- | --- | --- | --- | --- | --- |
| CCCOCC(C)OCC(C)O (stereo not drawn) [NSACB 10, 1-(1-methyl-2-propoxyethoxy)-2-propanol] | likely irrelevant positives in the MN test |  |  |  |  |  |  |  |  |  |  |  | Effect on cell viability [1]: did not impact viability up to the highest concentration of 10 mM |
| COc1cc([N+](=O)[O-])ccc1O [NSACB 6, 2-methoxy-4-nitrophenol] | likely irrelevant positives in the MN test | - | - | non-genotoxic | moderate to robust response increase in one of the aneugenic biomarkers (i.e., 4H p-H3) | + | + | robust fold-increase in %MN with a clear concentration-response relationship | - | non-DDI |  |  |  |
| Cc1ccc(O)c(N)c1 [NSACB 2, 2-amino-4-methylphenol] | genotoxic in vitro, causing DNA damage via a clastogenic MoA | + C | - | clastogens | 4H ɣH2AX and 24H p53 | + | + | variable responses with a significant increase observed only at the highest concentration | + | DDI | weaker DDI responses |  | Strength of MultiFlow biomarker response (text) [3]: most robust increases |
| O=[N+]([O-])c1cc(O)ccc1NCCCO [NSACB 9, 4-[(3-hydroxypropyl)amino]-3-nitrophenol] | genotoxic in vitro, causing DNA damage via a clastogenic MoA | + C | + C | clastogens | 4H and 24H ɣH2AX | + | + | robust fold-increase in %MN with a clear concentration-response relationship | + |  | moderate DDI response | + | Chromosomal aberration test result ([6]; in the presence of S9, ref SCCP, 2007): induced structural chromosomal aberrations; In vitro mammalian chromosomal aberration test result (OECD 473) ([6]; ref SCCP, 2007, 2013): positive; Chromosomal aberration test result ([6]; without S9, ref SCCP, 2007): equivocal; Strength of MultiFlow biomarker response (text) ([3]; listed as 9): most robust increases; Strength of MultiFlow biomarker response (text) ([3]; listed as NSACB #9): strong fold-increases in clastogenic biomarkers (i.e., 4H and 24H ɣH2AX) in both S9 conditions |
| COc1cc([C@@H]2c3cc4c(cc3[C@@H](O[C@@H]3O[C@@H]5CO[C@@H](C)O[C@H]5[C@H](O)[C@H]3O)[C@H]3COC(=O)[C@H]23)OCO4)cc(OC)c1O [EPEG, Etoposide, reference compound] |  | + C | + C |  |  | + | + | significant fold-increases in %MN |  | DDI |  | + | ToxPi profile of multiplexed endpoint BMCs [2]: most potent for five of the six endpoints examined; TGx-DDI BMC potency ranking (bootstrapped median gene BMC) [5]: lowest median gene BMC |
| CCN(CC)c1cccc(O)c1 [NSACB 4, 3-diethylaminophenol] | genotoxic in vitro, causing DNA damage via a clastogenic MoA | + C/A | + C | pan-genotoxicant | clastogen biomarkers 4H p53 and 4H ɣH2AX, as well as aneugen marker 4H p-H3 and pan-genotoxic biomarker 24H p53 |  |  |  | + | DDI | weaker DDI responses |  |  |
| OC[C@@H](O)[C@@H](O)[C@H](O)[C@H](O)CO [DMANN, D-mannitol, reference compound] |  | - | - |  |  |  | - | not observed | - | non-DDI |  | - | Effect on cell viability [1]: no decrease in viability |
| C/C=C(/C)C(=O)O[C@H]1C(C)=C2[C@H]([C@@H]1OC(=O)CCCCCCC)[C@@](C)(OC(C)=O)C[C@H](OC(=O)CCC)[C@@]1(O)[C@H]2OC(=O)[C@@]1(C)O [thapsigargin] |  |  |  |  |  |  |  |  |  |  |  |  | MicroFlow MN result (MN): induce MN |
| Cc1cc(C)n(CO)n1 [NSACB 3, 3,5-dimethylpyrazole-1-methanol] | genotoxic in vitro, causing DNA damage via a clastogenic MoA | + C | + C | clastogens | 4H p53 and 4H ɣH2AX | + | + | variable responses with a significant increase observed only at the highest concentration | + | DDI | weaker DDI responses |  | Strength of MultiFlow biomarker response (text) [3]: more moderate responses |
| Nc1cccc(N)n1 [NSACB 5, 2,6-diaminopyridine] | genotoxic in vitro, causing DNA damage via a clastogenic MoA | + C | + C | clastogens | 4H p53 and 4H ɣH2AX | + | + | robust fold-increase in %MN with a clear concentration-response relationship | + | DDI across all concentrations | strongest responses |  | Chromosomal aberration test result ([6]; continuous treatment (24H) without S9, ref SCCS, 2013): clastogenic; In vitro mammalian chromosomal aberration test result (OECD 473) ([6]; ref SCCP, 2007, 2013): positive; Chromosomal aberration test result ([6]; short-term (6H) treatment with S9, ref SCCS, 2013): clastogenic; Strength of MultiFlow biomarker response (text) ([3]; listed as 5): most robust increases; Strength of MultiFlow biomarker response (text) ([3]; listed as NSACB #5): strong response in clastogen-related biomarkers in both S9 conditions; ToxPi profile of multiplexed endpoint BMCs [2]: almost no slices protruding from the center; TGx-DDI BMC potency ranking (bootstrapped median gene BMC) [5]: greatest median gene BMC |
